Measured values: patent US11426084B2, “Method, apparatus and computer program for noninvasively determining cause of blood pressure change” (THE ASAN FOUNDATION, priority 2017, dated 2022)

Tested on: blood pressure, myocardial contractile force and vascular resistance
Assay: Administration of a cardiovascular agonist/blocker; indexes on myocardial contractile force and vascular resistance and changes in S1a and S2a observed
Type: in vivo
Conditions: for change in S1a and S2a when the drug is administered (in words): summary of Tables 2 to 4
Procedure: As cases of administering a cardiovascular agonist, Table 2 illustrates an experimental example in which various indexes on myocardial contractile force and vascular resistance and changes in S1a and S2a were observed when ephedrine of 10 mg as alpha and beta agonist was administered, Table 3 illustrates an experimental example in which various indexes on myocardial contractile force and vascular resistance and changes in S1a and S2a were observed when esmolol of 25 mg as beta-blocker was administered, and Table 4 illustrates an experimental example in which various indexes on myocardial contractile force and vascular resistance and changes in S1a and S2a were observed when phenylephrine of 100 mcg as the alpha agonist was administered. In order to determine the cause of the change in blood pressure, the above-described agents causing the change in blood pressure were administered and the response after the administration was examined.

CN[C@@H](C)[C@H](O)c1ccccc1 [ephedrine]
S12_R (after administration of ephedrine 10 mg, before administration 1.79 ± 0.83, P 0.209): 2.06 ± 0.84 | S′ (after administration of ephedrine 10 mg, before administration 9.7 ± 2.1, P 0.014): 11.3 ± 2.7 | S2a (after administration of ephedrine 10 mg, before administration 17.7 ± 8.1, P 0.004): 22.6 ± 9.2 au | S1a (after administration of ephedrine 10 mg, before administration 27.6 ± 12.6, P 0.012): 43.7 ± 24.9 au | SBP (after administration of ephedrine 10 mg, before administration 109.6 ± 13.2, P <0.001): 139.3 ± 14.0 mmHg | RRI (after administration of ephedrine 10 mg, before administration 652 ± 70, P 0.029): 625 ± 90 ms | SVR (after administration of ephedrine 10 mg, before administration 719.4 ± 199.2, P 0.011): 892.6 ± 250.2 dyne · sec/cm^5 | dp/dt (after administration of ephedrine 10 mg, before administration 725.2 ± 73.8, P 0.001): 1065.5 ± 217.6 mmHg/s | change in S1a and S2a when the drug is administered (in words): S1a and S2a increase together

COC(=O)CCc1ccc(OCC(O)CNC(C)C)cc1 (centres unmarked) [esmolol]
S12_R (after administration of esmolol 25 mg, before administration 2.6 ± 0.91, P 0.001): 1.4 ± 0.38 | S′ (after administration of esmolol 25 mg, before administration 13.7 ± 4.4, P 0.011): 10.2 ± 2.1 | S2a (after administration of esmolol 25 mg, before administration 19.6 ± 5.5, P 0.162): 21.1 ± 5.4 au | S1a (after administration of esmolol 25 mg, before administration 49.3 ± 20.3, P 0.001): 27.5 ± 9.3 au | SBP (after administration of esmolol 25 mg, before administration 136.1 ± 16.8, P <0.001): 124.4 ± 13.2 mmHg | RRI (after administration of esmolol 25 mg, before administration 598 ± 96, P <0.001): 700 ± 95 ms | SVR (after administration of esmolol 25 mg, before administration 776.4 ± 256.1, P 0.062): 750.8 ± 251.0 dyne · sec/cm^5 | dp/dt (after administration of esmolol 25 mg, before administration 1051.5 ± 233.4, P <0.001): 804.3 ± 151.1 mmHg/s | change in S1a and S2a when the drug is administered (in words): only S1a is significantly decreased

CNC[C@H](O)c1cccc(O)c1 [phenylephrine]
S12_R (after administration of phenylephrine 100 mcg, before administration 2.86 ± 1.73, P 0.531): 4.18 ± 6.7 | S2a (after administration of phenylephrine 100 mcg, before administration 14.29 ± 7.53, P 0.016): 18.89 ± 8.14 au | S1a (after administration of phenylephrine 100 mcg, before administration 33.6 ± 20.8, P 0.428): 31.4 ± 15.5 au | SBP (after administration of phenylephrine 100 mcg, before administration 93.7 ± 13.2, P 0.014): 111.5 ± 13.8 mmHg | SVR (after administration of phenylephrine 100 mcg, before administration 452.7 ± 110.0, P 0.007): 524.0 ± 132.2 dyne · sec/cm^5 | RRI (after administration of phenylephrine 100 mcg, before administration 575 ± 141, P 0.384): 528 ± 197 ms | dp/dt (after administration of phenylephrine 100 mcg, before administration 585.1 ± 106.1, P <0.001): 744.8 ± 95.3 mmHg/s | change in S1a and S2a when the drug is administered (in words): any significant change does not occur in S1a unlike S2a
